Consider three molecules from PMC9025851, “Polyphenolic Compounds from Lespedeza bicolor Protect Neuronal Cells from Oxidative Stress” (Antioxidants, 2022).

In data set [1] the test system is PQ-treated Neuro-2a cells. As to the kind of experiment: PQ-induced neurotoxicity, cell viability (MTT). Type of data set: cell-based, murine. The settings on record: PQ 1 mM; for Effect on percentage of living cells after treatment with PQ: compounds 0.01–10 μM, 1 h pre-treatment, MTT after 24 h. As for the experimental part:
(§1) After 24 h of adhesion, Neuro-2a cells (1 × 10^4 cells/well) were treated with polyphenolic compounds at concentrations of 0.01–10 μM for 1 h. Subsequently, 1 mM of PQ, 10 μM rotenone or 80 μM of 6-OHDA (Sigma-Aldrich, St. Louis, MO, USA) were added. We used MTT assay to determine the percentage of living cells (cell viability) after 24 h of incubation. Cells incubated without inductors or with inductors were used as positive and negative control, respectively. The results are presented as percentages of the positive control value.

For data set [2], the system named is 6-OHDA-treated Neuro-2a cells. The data set can be described thus: ROS level in 6-OHDA-treated cells (H2DCF-DA). It counts as cell-based, murine. To be noted: 6-OHDA 80 µM, 1 h; H2DCF-DA. As for the experimental part: (§2) After 24 h of adhesion, Neuro-2a cells (1 × 10^4 cells/well) were incubated with compounds (0.01–10 µM) for 1 h. Then, we added rotenone (10 μM), 6-OHDA (80 μM), or PQ (1 mM) to each well and incubated cells for 1 h, 1 h, or 3 h, respectively. To evaluate the level of intracellular ROS, we added 20 µL of 2,7-dichlorodihydrofluorescein diacetate solution ([…], H2DCF-DA, Molecular Probes, Eugene, OR, USA) to each well, so that the final concentration was 10 µM, and incubated the microplate at 37 °C for an additional 30 min. Quercetin was used as a reference compound.

Data set [3] deals with 6-OHDA-treated Neuro-2a cells. The data set can be described thus: 6-OHDA-induced neurotoxicity, cell viability (MTT). Type of data set: cell-based, murine. The settings on record: 6-OHDA 80 µM, p < 0.05. The method, then:
as §1

A short description of the next data set: Cytotoxicity, MTT assay. It counts as cell-based, murine. To be noted: mouse, Neuro-2a neuroblastoma cells, read-out: Cytotoxic activity EC50. The method, then:
The murine neuroblastoma cell line Neuro-2a (CCL-131) was purchased from American Type Culture Collection (ATCC®) (Manassas, VA, USA). Cells were cultured in Dulbecco’s Modified Eagle Medium (Biolot, St. Petersburg, Russia). The medium contained 10% fetal bovine serum (Biolot, St. Petersburg, Russia) and 1% penicillin/streptomycin (Biolot, St. Petersburg, Russia). Cells were incubated at 37 °C in a humidified atmosphere containing 5% (v/v) CO2.
Stock solutions of polyphenolic compounds were prepared in DMSO at a concentration of 10 mM. […]
We incubated Neuro-2a cells (1 × 10^4 cells/well) at 37 °C in a CO2 incubator for 24 h until they formed an adherent monolayer. Then, 20 μL of the tested solution was loaded onto the cells and incubated for 24 h. After incubation, the medium containing the polyphenolic test compounds was replaced by 100 μL of fresh medium. Then, we added 10 μL of MTT (3-(4,5-dimethylthiazol-2-yl)-2,5-diphenyltetrazolium bromide) (Sigma-Aldrich, St. Louis, MO, USA) stock solution (5 mg/mL) to each well and incubated the microplate for 4 h. Then, 100 μL of SDS-HCl solution (1 g SDS/10 mL dH2O/17 μL 6 M HCl) was added to each well, followed by incubation for 18 h. We measured the absorbance of the converted dye formazan on a Multiskan FC microplate photometer (Thermo Scientific, Waltham, MA, USA) at a wavelength of 570 nm. We performed all experiments in triplicate and expressed the cytotoxic activity as percent of living cells.

For data set [4], the system named is human triple-negative breast cancer HTB-19. Also noted: method as in PMID 32087226. To be noted: cited from earlier work.
Data set [5] concerns esophageal squamous cell carcinoma Kyse-30. Also noted: method as in PMID 32087226. To be noted: cited from earlier work.
Details of data set [6]: method as in PMID 31004693. The settings on record: 30 min; mean ± SEM, n = 3; previously published; read-out: DPPH-Scavenging Effect SC50; cited from earlier work.
Data set [7] concerns human embryonic kidney cells HEK-293. Details: method as in PMID 32087226. To be noted: HEK-293 normal cell line; cited from earlier work.
In data set [8] the test system is hepatocellular carcinoma HEPG-2. Also noted: method as in PMID 32087226. To be noted: cited from earlier work.
On the set-up of data set [9]: method as in PMID 31004693. The settings on record: mean ± SEM, n = 3; previously published; cited from earlier work.
The test system of data set [10] is retina pigmented epithelium cells RPE-1. Details: method as in PMID 32087226. To be noted: RPE-1 normal cell line; cited from earlier work.
The subject of data set [11] is PQ-treated Neuro-2a cells. The data set can be described thus: ROS level in PQ-treated cells (H2DCF-DA). Type of data set: cell-based, murine. The settings on record: PQ 1 mM, 3 h. The method, then:
as §2

The next data set has as its system rats. Also noted: method as in PMID 31693927, doi:10.1016/j.jff.2017.05.002. The settings on record: cited from earlier work.
In data set [12] the test system is LPS- and Aβ-induced neurotoxicity. Details: method as in PMID 21708076. The settings on record: cited from earlier work.
In data set [13] the test system is cerebral global-ischemia model. To be noted: cited from earlier work.
The subject of another data set is TNF-α, IL-1, and IL-6. Also noted: method as in PMID 21708076. To be noted: cited from earlier work.

Consider `CC(C)=CCC/C(C)=C/Cc1c(O)c(O)cc2c3c(oc12)-c1ccc(O)cc1OC3` [Compound 4, lespedezol A2], for which, in data set [1], the “Effect on percentage of living cells after treatment with PQ” value is recorded as “did not exhibit any effect”. Also, the “Effect on ROS levels in 6-OHDA-treated cells” value in data set [2] is given as “significantly decreased”. Also, the “Increase in percentage of living cells after 6-OHDA treatment versus 6-OHDA-treated cells” value in [3] turned out to be 7.0%. Also, the EC50 at 24 h in the data set “Cytotoxicity, MTT assay” was found to be 76 µM. In addition, the Cytotoxicity result in [4], in data set [5], in data set [7], in data set [8] and in [10] was “rather cytotoxic” each time. In addition, in data set [6], the EC50 is 18 ± 0.2 µM. The FRAP in data set [9] was 2.78 ± 0.18 mol (Fe^2+)/mol (polyphenolic compound X).
For the molecule `CC(C)=CCC/C(C)=C/Cc1c(O)c(O)cc2c1O[C@H]1c3cc(CC=C(C)C)c(O)cc3OC[C@@H]21` [Compound 6, (6aR,11aR)-2-isoprenyl-6a,11a-dihydrolespedezol A2], the “Effect on percentage of living cells after treatment with PQ” value in data set [1] is recorded as “significantly increased”. Moreover, the “Concentration range in which the neuroprotective effect was detected” value in [1] (MTT) fell in the range of 0.01 to 1 µM. In addition, the “Increase in percentage of living cells after treatment with PQ” value in data set [1] (compound 1 μM, MTT) came out at 17%. The EC50 at 24 h in “Cytotoxicity, MTT assay” was 40.6 µM. Also, the “Effect on ROS level in PQ-treated cells” value in [11] is given as “slightly decreased”. For the same molecule, the EC50 in [6] is 21.8 ± 2 µM. In [9], the FRAP is 1.43 ± 0.06 mol (Fe^2+)/mol (polyphenolic compound X).
Take `O=c1oc2cc(O)ccc2c2oc3cc(O)ccc3c12` [Coumestrol]: in the data set with rats, the Mitochondrial activity result is on record as “modulated” and the Oxidative stress entry was “decreased”. For the same molecule, the “Neurotoxicity induced by LPS and amyloid-beta peptide (Aβ)” value in data set [12] is recorded as “attenuated”. Also, the “Neuroprotection in a cerebral global-ischemia model” value in data set [13] is recorded as “effective neuroprotection”. Moreover, the “Production of inflammatory cytokines TNF-α, IL-1, and IL-6” value with TNF-α, IL-1, and IL-6 is recorded as “inhibited”.
